Test results as given in patent publication US11192900B2, “Substituted 1,6-dihydropyridinones and 1,2-dihydroisoquinolinones as bet inhibitors” (NUVATION BIO INC., priority 2018, dated 2021).
pIC50: −log10 of the molar value. Where two headings read alike, the source gives them in different places.

Assays:
[1] = tested on: IEC-6 rat intestinal epithelial cell line; test: IEC-6 cell viability, Protocol A (toxicity to non-cancerous cells); assay type: cell-based; settings: IEC-6, 3000 cells per well, 96 hrs
Protocol: The effects of test compounds were also studied in the IEC-6 rat intestinal epithelial cell line to assess potential toxicity to non-cancerous cells. The cells were harvested during the logarithmic growth period and counted. In Protocol A, cells were seeded at a count of 3000 cells per well/100 μl in a 96-well plate. After seeding, cells were incubated at 37° C., 5% CO2 for 24 hr. Cells were treated with test compounds at 8 concentrations within a desired concentration range (e.g. 5 nM-10 μM) for generation of dose response curves by preparing serial dilutions of the test compound in DMSO which were further diluted with culture medium and then added to each well. The plate was further incubated for another 96 hrs in humidified incubator at 37° C. and 5% CO2. The assay was terminated by addition of resazurin (# R7017, Sigma). The plate was incubated for 4 hr at 37° C., 5% CO2 and fluorescence was measured using excitation and emission wavelengths of 535 and 590 nm, respectively. Cell viability data were plotted using GraphPad Prism (GraphPad Software, Inc., San Diego, Calif.). In addition, a nonlinear regression model with a sigmoidal dose response and variable slope within GraphPad Prism was used to calculate the IC50 value of individual test compounds. […]

BRD4-2 = BRD4-2 (Homo sapiens (Human), UniProt O60885); test: Bromodomain and Extraterminal Domain (BET) Binding Assay
Outline: (§1)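 AlphaScreen displacement of biotinylated H4 (1-21) K5/8/12/16Ac peptide, in 50 mM HEPES pH 7.5, 100 mM NaCl, 1 mg/ml BSA, 0.05% CHAPS, 0.5% DMSO. Protein-compound preincubation 30 min RT, then ligand 30 min, donor then acceptor beads 60 min dark. Inhibition versus plate controls; IC50 from 10-point titrations.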

BRDT-1 = BRDT-1 (Homo sapiens (Human), UniProt Q58F21); test: as above
Outline: as §1

BRD3-2 = BRD3-2 (Homo sapiens (Human), UniProt Q15059); test: as above
Outline: as §1

BRD2-1 = BRD2-1 (Homo sapiens (Human), UniProt P25440); test: as above
Outline: as §1

BRD4-1 = BRD4-1 (Homo sapiens (Human), UniProt O60885); test: as above
Outline: as §1

BRD3-1 = BRD3-1 (Homo sapiens (Human), UniProt Q15059); test: as above
Outline: as §1

BRD2-2 = BRD2-2 (Homo sapiens (Human), UniProt P25440); test: as above
Outline: as §1

SET-2 = test: Cell viability assay (XTT); assay type: cell-based; settings: Homo sapiens; SET-2, XTT, up to 72 hr
Protocol: (§2) A panel of BET-sensitive and insensitive cell lines were profiled for effect on cell viability using compound 3. Cells were cultured in the presence of inhibitors at various concentrations for up to 72 hr. For cell viability assays as previously described (Guo Y, et al. 2012. J Hematol Oncol 5:72; Chen Y, et al. 2016. Oncogene 35:2971-8), 0.08 mg/ml XTT (2,3-bis-(2-methoxy-4-nitro-5-sulfophenyl)-2H-tetrazolium-5-carboxanilide) and 8 μM phenazine methyl sulfate (PMS) were added to the cells at the end of the test compound or vehicle treatment duration, and absorbance at 450 nm was measured after 3 hr incubation at 37° C. Assays were performed in triplicates. IC50 values were estimated using a non-linear mixed effect model fitting a sigmoid curve to the experimental dose response data (Vis D J, et al. 2016. Pharmacogenomics 17(7):691-700).

MEG-01 = test: Cell viability assay (XTT); assay type: cell-based; settings: Homo sapiens; MEG-01, XTT, up to 72 hr
Protocol: as §2

HEL = test: Cell viability assay (XTT); assay type: cell-based; settings: Homo sapiens, up to 72 hr
Protocol: as §2

OCI-LY18 = test: Cell viability assay (XTT); assay type: cell-based; settings: Homo sapiens, up to 72 hr
Protocol: as §2

MV-4-11 = test: Cell viability assay (XTT); assay type: cell-based; settings: Homo sapiens, MV4-11; MV-4-11, XTT, up to 72 hr
Protocol: as §2

Molt-4 = test: Cell viability assay (XTT); assay type: cell-based; settings: Homo sapiens; Molt-4, XTT, up to 72 hr
Protocol: as §2

Jurkat = test: Cell viability assay (XTT); assay type: cell-based; settings: Homo sapiens, up to 72 hr
Protocol: as §2

THP-1 = test: Cell viability assay (XTT); assay type: cell-based; settings: Homo sapiens; THP-1, XTT, up to 72 hr
Protocol: as §2

U2973 = test: Cell viability assay (XTT); assay type: cell-based; settings: Homo sapiens, U-2973, up to 72 hr
Protocol: as §2

K562 = test: Cell viability assay (XTT); assay type: cell-based; settings: Homo sapiens, up to 72 hr
Protocol: as §2

Chain of BRD3-2 (Q15059 306-415): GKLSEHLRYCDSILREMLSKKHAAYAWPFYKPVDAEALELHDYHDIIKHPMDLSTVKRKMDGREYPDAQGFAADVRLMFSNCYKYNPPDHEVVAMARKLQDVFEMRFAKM
Chain of BRD2-1 (P25440 74-180): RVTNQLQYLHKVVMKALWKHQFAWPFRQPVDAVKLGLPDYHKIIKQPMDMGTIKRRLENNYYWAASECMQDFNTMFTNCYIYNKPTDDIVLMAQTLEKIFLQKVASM
Chain of BRD3-1 (Q15059 34-140): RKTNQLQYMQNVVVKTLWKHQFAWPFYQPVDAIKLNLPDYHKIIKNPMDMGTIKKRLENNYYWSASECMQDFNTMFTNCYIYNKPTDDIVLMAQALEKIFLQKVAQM
Chain of BRD2-2 (P25440 344-453): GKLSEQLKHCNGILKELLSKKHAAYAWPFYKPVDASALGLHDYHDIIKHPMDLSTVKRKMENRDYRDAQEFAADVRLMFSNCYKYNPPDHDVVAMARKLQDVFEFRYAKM

## C=CS(=O)(=O)Nc1ccc(Oc2ccc(F)cc2F)c(-c2cc(NC)c(=O)n(C)c2)c1 [Compound 3, N-(4-(2,4-difluorophenoxy)-3-(1-methyl-5-(methylamino)-6-oxo-1,6-dihydropyridin-3-yl)phenyl)ethenesulfonamide]
[1]
  pIC50: 6.47
BRD4-2; Table 2, read-out: BET IC50 BRD4-2
  pIC50: 7.68
BRD4-2; Table 3, read-out: BRD4-2 IC50
  pIC50: 7.68
BRDT-1
  pIC50: 7.51
BRD3-2
  pIC50: 7.54
BRD2-1
  pIC50: 7.80
BRD4-1; Table 2, read-out: BET IC50 BRD4-1
  pIC50: 7.62
BRD4-1; Table 3, read-out: BRD4-1 IC50
  pIC50: 7.62
BRD3-1
  pIC50: 7.46
BRD2-2
  pIC50: 7.92
SET-2
  pIC50: 7.05
MEG-01
  pIC50: 6.51
HEL
  pIC50: 6.40
OCI-LY18
  pIC50: 6.38
MV-4-11
  pIC50: 7.00
Molt-4
  pIC50: 6.52
Jurkat
  pIC50: 5.22
THP-1
  pIC50: 6.60
U2973
  pIC50: 6.62
K562
  pIC50: 5.30
